Measurements taken from ChEMBL document CHEMBL1275550, “In vitro activity of doripenem, a carbapenem for the treatment of challenging infections caused by gram-negative bacteria, against recent clinical isolates from the United States” (2008).
Values after ≈ are worked out from the molar mass of the structure shown.

Assays:
Pseudomonas aeruginosa [1] = experiment: Antimicrobial activity against Pseudomonas aeruginosa assessed as susceptible isolate by broth microdilution method; assay type: functional
Pseudomonas aeruginosa [2] = experiment: Antimicrobial activity against Pseudomonas aeruginosa isolated from patient by broth microdilution method
Staphylococcus aureus = experiment: Antimicrobial activity against methicillin-susceptible Staphylococcus aureus by broth microdilution method; assay type: functional
Enterobacter cloacae [3] = experiment: Antimicrobial activity against Enterobacter cloacae with nonderepressed AmpC beta-lactamsae by broth microdilution method; assay type: functional
Pseudomonas aeruginosa [4] = experiment: Antimicrobial activity against Ceftazidime susceptible Pseudomonas aeruginosa assessed as intermediate isolate by broth microdilution method; assay type: functional
Pseudomonas aeruginosa [5] = experiment: Antimicrobial activity against imipenem susceptible Pseudomonas aeruginosa by broth microdilution method; assay type: functional
Klebsiella pneumoniae [6] = experiment: Antimicrobial activity against Klebsiella pneumoniae assessed as susceptible isolate by broth microdilution method; assay type: functional
Acinetobacter [7] = experiment: Antimicrobial activity against imipenem susceptible Acinetobacter by broth microdilution method; assay type: functional
Enterobacter cloacae [8] = experiment: Antimicrobial activity against Enterobacter cloacae assessed as susceptible isolate by broth microdilution method; assay type: functional
Citrobacter [9] = experiment: Antimicrobial activity against Citrobacter with nonderepressed AmpC beta-lactamsae assessed as intermediate isolate by broth microdilution method; assay type: functional
Acinetobacter [10] = experiment: Antimicrobial activity against imipenem susceptible Acinetobacter assessed as intermediate isolate by broth microdilution method; assay type: functional
Proteus mirabilis [11] = experiment: Antimicrobial activity against Non-ESBL Proteus mirabilis assessed as intermediate isolate by broth microdilution method; assay type: functional
Serratia marcescens [12] = experiment: Antimicrobial activity against Serratia marcescens by broth microdilution method; assay type: functional
Pseudomonas aeruginosa [13] = experiment: Antimicrobial activity against Pseudomonas aeruginosa isolated from ICU patient assessed as intermediate isolate by broth microdilution method
Pseudomonas aeruginosa [14] = experiment: Antimicrobial activity against Ceftazidime non-susceptible Pseudomonas aeruginosa by broth microdilution method; assay type: functional
Escherichia coli [15] = experiment: Antimicrobial activity against Non-ESBL Escherichia coli assessed as susceptible isolate by broth microdilution method; assay type: functional
Klebsiella pneumoniae [16] = experiment: Antimicrobial activity against Non-ESBL Klebsiella pneumoniae assessed as intermediate isolate by broth microdilution method; assay type: functional
Citrobacter [17] = experiment: Antimicrobial activity against Citrobacter with nonderepressed AmpC beta-lactamsae by broth microdilution method; assay type: functional
Pseudomonas aeruginosa [18] = experiment: Antimicrobial activity against Ceftazidime susceptible Pseudomonas aeruginosa assessed as resistant isolate by broth microdilution method; assay type: functional
Enterobacteriaceae [19] = experiment: Antimicrobial activity against Enterobacteriaceae by broth microdilution method; assay type: functional
Enterobacteriaceae [20] = experiment: Antimicrobial activity against Ceftazidime non-susceptible Enterobacteriaceae assessed as susceptible isolate by broth microdilution method; assay type: functional
Enterobacter cloacae [21] = experiment: Antimicrobial activity against Enterobacter cloacae with derepressed AmpC beta-lactamsae by broth microdilution method; assay type: functional
Enterobacter cloacae [22] = experiment: Antimicrobial activity against Enterobacter cloacae with derepressed AmpC beta-lactamsae assessed as susceptible isolate by broth microdilution method; assay type: functional
Serratia marcescens [23] = experiment: Antimicrobial activity against Ceftazidime susceptible Serratia marcescens by broth microdilution method; assay type: functional
Citrobacter [24] = experiment: Antimicrobial activity against Citrobacter with derepressed AmpC beta-lactamsae by broth microdilution method; assay type: functional
Proteus mirabilis [25] = experiment: Antimicrobial activity against ESBL producing Proteus mirabilis by broth microdilution method; assay type: functional
Pseudomonas aeruginosa [26] = experiment: Antimicrobial activity against Pseudomonas aeruginosa isolated from ICU patient by broth microdilution method; assay type: functional
Staphylococcus = experiment: Antimicrobial activity against methicillin-susceptible coagulase-negative Staphylococcus by broth microdilution method; assay type: functional
Acinetobacter [27] = experiment: Antimicrobial activity against imipenem non-susceptible Acinetobacter assessed as resistant isolate by broth microdilution method; assay type: functional
Escherichia coli [28] = experiment: Antimicrobial activity against Non-ESBL Escherichia coli assessed as intermediate isolate by broth microdilution method; assay type: functional
Enterobacter cloacae [29] = experiment: Antimicrobial activity against Enterobacter cloacae with nonderepressed AmpC beta-lactamsae assessed as intermediate isolate by broth microdilution method; assay type: functional
Pseudomonas aeruginosa [30] = experiment: Antimicrobial activity against Ceftazidime non-susceptible Pseudomonas aeruginosa assessed as resistant isolate by broth microdilution method; assay type: functional
Enterobacteriaceae [31] = experiment: Antimicrobial activity against ceftazidime-susceptible Enterobacteriaceae assessed as resistant isolate by broth microdilution method; assay type: functional
Serratia marcescens [32] = experiment: Antimicrobial activity against Ceftazidime non-susceptible Serratia marcescens by broth microdilution method; assay type: functional
Serratia marcescens [33] = experiment: Antimicrobial activity against Serratia marcescens assessed as susceptible isolate by broth microdilution method; assay type: functional
Enterobacteriaceae [34] = experiment: Antimicrobial activity against Ceftazidime non-susceptible Enterobacteriaceae assessed as intermediate isolate by broth microdilution method; assay type: functional
Pseudomonas aeruginosa [35] = experiment: Antimicrobial activity against imipenem non-susceptible Pseudomonas aeruginosa assessed as susceptible isolate by broth microdilution method; assay type: functional
Acinetobacter [36] = experiment: Antimicrobial activity against imipenem non-susceptible Acinetobacter by broth microdilution method; assay type: functional
Proteus mirabilis [37] = experiment: Antimicrobial activity against ESBL producing Proteus mirabilis assessed as intermediate isolate by broth microdilution method; assay type: functional
Escherichia coli [38] = experiment: Antimicrobial activity against ESBL producing Escherichia coli assessed as susceptible isolate by broth microdilution method; assay type: functional
Escherichia coli [39] = experiment: Antimicrobial activity against ESBL producing Escherichia coli by broth microdilution method; assay type: functional
Streptococcus pneumoniae = experiment: Antimicrobial activity against penicillin-susceptible Streptococcus pneumoniae by broth microdilution method; assay type: functional; details: Streptococcus pneumoniae
Escherichia coli [40] = experiment: Antimicrobial activity against Non-ESBL Escherichia coli by broth microdilution method; assay type: functional
Escherichia coli [41] = experiment: Antimicrobial activity against Escherichia coli by broth microdilution method; assay type: functional
Klebsiella pneumoniae [42] = experiment: Antimicrobial activity against Non-ESBL Klebsiella pneumoniae by broth microdilution method; assay type: functional
Enterobacteriaceae [43] = experiment: Antimicrobial activity against ceftazidime-susceptible Enterobacteriaceae assessed as susceptible isolate by broth microdilution method; assay type: functional
Proteus mirabilis [44] = experiment: Antimicrobial activity against Proteus mirabilis assessed as susceptible isolate by broth microdilution method; assay type: functional
Escherichia coli [45] = experiment: Antimicrobial activity against ESBL producing Escherichia coli assessed as intermediate isolate by broth microdilution method; assay type: functional
Serratia marcescens [46] = experiment: Antimicrobial activity against Ceftazidime susceptible Serratia marcescens assessed as intermediate isolate by broth microdilution method; assay type: functional
Pseudomonas aeruginosa [47] = experiment: Antimicrobial activity against imipenem non-susceptible Pseudomonas aeruginosa assessed as intermediate isolate by broth microdilution method; assay type: functional
Acinetobacter [48] = experiment: Antimicrobial activity against imipenem non-susceptible Acinetobacter assessed as susceptible isolate by broth microdilution method; assay type: functional
Acinetobacter [49] = experiment: Antimicrobial activity against Acinetobacter assessed as susceptible isolate by broth microdilution method; assay type: functional
Proteus mirabilis [50] = experiment: Antimicrobial activity against Non-ESBL Proteus mirabilis by broth microdilution method; assay type: functional

SMILES: C[C@@H](O)[C@H]1C(=O)N2C(C(=O)O)=C(S[C@@H]3CN[C@H](C(=O)N(C)C)C3)[C@H](C)[C@H]12 [MEROPENEM]
- Activity (Pseudomonas aeruginosa [1]): 85.3%
- Activity (Pseudomonas aeruginosa [2]): 3.7%
- MIC50 (Staphylococcus aureus): 0.12 µg/mL (≈ 0.313 µM)
- MIC50 (Staphylococcus aureus; Staphylococcus aureus, read-out: MIC50): 0.06 µg/mL (≈ 0.156 µM)
- MIC50 (Enterobacter cloacae [3]): 0.06 µg/mL (≈ 0.156 µM)
- MIC90 (Enterobacter cloacae [3]): 0.12 µg/mL (≈ 0.313 µM)
- Activity (Pseudomonas aeruginosa [4]): 4.7%
- MIC50 (Pseudomonas aeruginosa [5]): 0.5 µg/mL (≈ 1.3 µM)
- MIC90 (Pseudomonas aeruginosa [5]): 2 µg/mL (≈ 5.22 µM)
- Activity (Klebsiella pneumoniae [6]): 99.7%
- MIC50 (Acinetobacter [7]): 1 µg/mL (≈ 2.61 µM)
- MIC90 (Acinetobacter [7]): 4 µg/mL (≈ 10.4 µM)
- Activity (Enterobacter cloacae [8]): 99.6%
- Activity (Citrobacter [9]): 0%
- Activity (Acinetobacter [10]): 1.7%
- Activity (Proteus mirabilis [11]): 0%
- MIC50 (Serratia marcescens [12]): 0.12 µg/mL (≈ 0.313 µM)
- MIC90 (Serratia marcescens [12]): 0.25 µg/mL (≈ 0.652 µM)
- Activity (Pseudomonas aeruginosa [13]): 7.9%
- MIC50 (Pseudomonas aeruginosa [14]): 4 µg/mL (≈ 10.4 µM)
- MIC90 (Pseudomonas aeruginosa [14]): 32 µg/mL (≈ 83.4 µM)
- Activity (Escherichia coli [15]): 100%
- Activity (Klebsiella pneumoniae [16]): 0%
- MIC50 (Citrobacter [17]): 0.06 µg/mL (≈ 0.156 µM)
- MIC90 (Citrobacter [17]): 0.06 µg/mL (≈ 0.156 µM)
- Activity (Pseudomonas aeruginosa [18]): 6.5%
- MIC50 (Enterobacteriaceae [19]): 0.06 µg/mL (≈ 0.156 µM)
- MIC90 (Enterobacteriaceae [19]): 0.12 µg/mL (≈ 0.313 µM)
- Activity (Enterobacteriaceae [20]): 98%
- MIC50 (Enterobacter cloacae [21]): 0.25 µg/mL (≈ 0.652 µM)
- MIC90 (Enterobacter cloacae [21]): 0.5 µg/mL (≈ 1.3 µM)
- Activity (Enterobacter cloacae [22]): 100%
- MIC50 (Serratia marcescens [23]): 0.12 µg/mL (≈ 0.313 µM)
- MIC90 (Serratia marcescens [23]): 0.25 µg/mL (≈ 0.652 µM)
- MIC50 (Citrobacter [24]): 0.12 µg/mL (≈ 0.313 µM)
- MIC90 (Citrobacter [24]): 0.25 µg/mL (≈ 0.652 µM)
- MIC (Proteus mirabilis [25]): 0.12 µg/mL (≈ 0.313 µM)
- MIC50 (Pseudomonas aeruginosa [26]): 1 µg/mL (≈ 2.61 µM)
- MIC90 (Pseudomonas aeruginosa [26]): 32 µg/mL (≈ 83.4 µM)
- MIC50 (Staphylococcus): 0.12 µg/mL (≈ 0.313 µM)
- MIC50 (Staphylococcus; Staphylococcus, read-out: MIC50): 0.06 µg/mL (≈ 0.156 µM)
- Activity (Acinetobacter [27]): 100%
- Activity (Escherichia coli [28]): 0%
- Activity (Enterobacter cloacae [29]): 0.5%
- Activity (Pseudomonas aeruginosa [30]): 35.5%
- Activity (Enterobacteriaceae [31]): 0.1%
- MIC50 (Serratia marcescens [32]): 0.25 µg/mL (≈ 0.652 µM)
- MIC90 (Serratia marcescens [32]): 0.25 µg/mL (≈ 0.652 µM)
- Activity (Serratia marcescens [33]): 99.2%
- Activity (Enterobacteriaceae [34]): 0.7%
- Activity (Pseudomonas aeruginosa [35]): 42.5%
- MIC50 (Acinetobacter [36]): > 32 µg/mL
- MIC90 (Acinetobacter [36]): > 32 µg/mL
- Activity (Proteus mirabilis [37]): 0%
- Activity (Escherichia coli [38]): 100%
- MIC50 (Escherichia coli [39]): 0.06 µg/mL (≈ 0.156 µM)
- MIC90 (Escherichia coli [39]): 0.06 µg/mL (≈ 0.156 µM)
- MIC50 (Streptococcus pneumoniae): ≤ 0.015 µg/mL
- MIC50 (Escherichia coli [40]): 0.03 µg/mL (≈ 0.0782 µM)
- MIC90 (Escherichia coli [40]): 0.06 µg/mL (≈ 0.156 µM)
- MIC50 (Escherichia coli [41]): 0.03 µg/mL (≈ 0.0782 µM)
- MIC90 (Escherichia coli [41]): 0.06 µg/mL (≈ 0.156 µM)
- MIC50 (Klebsiella pneumoniae [42]): 0.06 µg/mL (≈ 0.156 µM)
- MIC90 (Klebsiella pneumoniae [42]): 0.06 µg/mL (≈ 0.156 µM)
- Activity (Enterobacteriaceae [43]): 99.6%
- Activity (Proteus mirabilis [44]): 100%
- Activity (Escherichia coli [45]): 0%
- Activity (Serratia marcescens [46]): 0%
- Activity (Pseudomonas aeruginosa [47]): 16.9%
- Activity (Acinetobacter [48]): 0%
- Activity (Acinetobacter [49]): 80.6%
- MIC50 (Proteus mirabilis [50]): 0.12 µg/mL (≈ 0.313 µM)
- MIC90 (Proteus mirabilis [50]): 0.25 µg/mL (≈ 0.652 µM)
